Data from article PMC4619332, “Targeting type-2 metabotropic glutamate receptors to protect vulnerable hippocampal neurons against ischemic damage” (Molecular Brain, 2015).

Target: T1, mGlu3 receptor (Homo sapiens, UniProt Q14832)
T1 construct: gene GRM3; recombinant receptor stably expressed in HEK293 cells
Assay: FLIPR Ca2+ mobilization, antagonist mode at glutamate EC80
Format: cell-based
Excerpt: FLIPR Ca2+ mobilization, antagonist mode [NT]

T1 sequence (Q14832 23-879): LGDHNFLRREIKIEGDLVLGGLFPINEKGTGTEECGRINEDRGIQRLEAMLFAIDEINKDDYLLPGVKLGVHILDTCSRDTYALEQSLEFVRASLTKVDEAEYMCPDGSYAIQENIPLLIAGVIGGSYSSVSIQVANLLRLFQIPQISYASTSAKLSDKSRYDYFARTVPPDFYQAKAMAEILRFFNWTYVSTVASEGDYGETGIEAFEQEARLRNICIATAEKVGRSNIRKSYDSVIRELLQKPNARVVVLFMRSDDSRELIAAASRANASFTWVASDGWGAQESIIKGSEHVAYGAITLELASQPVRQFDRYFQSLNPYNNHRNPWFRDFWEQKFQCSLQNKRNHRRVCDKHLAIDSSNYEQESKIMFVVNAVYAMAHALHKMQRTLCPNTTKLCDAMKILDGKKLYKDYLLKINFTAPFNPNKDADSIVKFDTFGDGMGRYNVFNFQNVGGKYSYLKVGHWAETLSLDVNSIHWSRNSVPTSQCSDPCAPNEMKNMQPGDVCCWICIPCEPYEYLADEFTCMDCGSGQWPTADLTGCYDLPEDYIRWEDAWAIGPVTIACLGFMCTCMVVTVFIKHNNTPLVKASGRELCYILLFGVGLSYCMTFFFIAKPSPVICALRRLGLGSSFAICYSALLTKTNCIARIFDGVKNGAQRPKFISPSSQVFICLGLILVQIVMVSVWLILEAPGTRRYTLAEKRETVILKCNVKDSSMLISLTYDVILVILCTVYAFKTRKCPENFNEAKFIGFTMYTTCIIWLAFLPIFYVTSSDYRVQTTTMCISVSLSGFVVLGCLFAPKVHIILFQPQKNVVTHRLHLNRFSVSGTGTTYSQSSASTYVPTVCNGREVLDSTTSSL

IC50: 17.4 µM
Substance: ADX92639
